The values below are quoted from earlier work in patent US8912192B2, “Extended release preparation” (Taisho Pharmaceutical Co., Ltd, priority 2010, dated 2014).

The conditions of data set [1]: preparation containing a pharmaceutically acceptable salt of compound A, oral, dogs, fasting state.
For data set [2] the following is noted: pharmaceutically acceptable salt of compound A.
In data set [3] the test system is phosphodiesterase III enzymes. Conditions: compound A or a pharmaceutically acceptable salt thereof.

Structures can show the parent of a compound that is named as a salt. Where two headings read alike, the source gives them in different places.

For `O=c1[nH]nc(OCCCc2ccc(Cl)cc2)c(NCc2cccnc2)c1Br` [compound A, 4-bromo-6-[3-(4-chlorophenyl)propoxy]-5-(3-pyridylmethylamino)-3(2H)-pyridazinone], in data set [1], the bioavailability entry is “about 10%”. Further, the solubility in water result was “quite poorly soluble” in data set [2] (around neutral pH range similar to enteric environment) and “decreases its solubility in water” in data set [2] (pH range of about 4.0 or higher). The “inhibitory effect against phosphodiesterase III enzymes” value in data set [3] was “has an inhibitory effect against phosphodiesterase III enzymes”. In addition, the “half-life period in blood plasma” value (blood plasma) is reported as “about 1.5 hours”.

For the compound `CC(N)C(O)c1ccccc1` (stereo not drawn) [phenylpropanolamine hydrochloride, reference compound], for the setting “in vivo”, the half-life period was 4 h.
